# What was measured:
# limbus stem cells = conditions: rabbit; cited from earlier work
# [1] = Alanine scanning and variants of the 29-mer (activities)
# meibocytes = assay: Oil Red O staining of eyelid cryosections for lipids; assay type: in vivo, C57BL/6 mice; conditions: old mice, versus DMSO
# Procedure: (§1) Twelve to fifteen (12-15) months old C57BL/6 mice and 4-8 months old C57BL/6 mice were used. These mice were kept in standard pathogen-free environment at 24° C.±1° C., relatively humidity 60%±10%. All procedures were approved by the Mackay Memorial Hospital Review Board for animal investigation and were conducted in accordance with the ARVO statement for the Use of Animals in Ophthalmic and Vision Research. Mice were anesthetized by an intraperitoneal injection of a mixture of zoletil (6 mg/kg) and xylazine (3 mg/kg). One drop of 0.5% proparacaine hydrochloride (Alcaine; Alcon, Fort Worth, Tex., USA) was given before any ocular procedure.
# (§2) The 29-mer was reconstituted in DMSO to a final concentration 100 μM. A separated dose of 10 μl of 29-mer (100 μM) mixed with 90 μl of phosphate-buffered saline (PBS) was injected into the upper and lower conjunctival fornix. 10 μl of DMSO mixed with 90 μl of PBS served as a control. To evaluate the effect of 29-mer on tear film break-up time (TBUT) and tear secretion of old mice, subconjunctival injection of 29-mer was introduced weekly till one month and then followed up for two months.
# Eyelid tissues were embedded in OCT and sectioned at 8 μm of thickness. Frozen sections were placed in 60% 2-propanol for 1 minute, stained with filtered ORO solution for 15 minutes, rinsed with PBS and counterstained with hematoxylin.^4
# [2] = Tear film break-up time (TBUT); assay type: in vivo, C57BL/6 mice; conditions: old mice, weekly subconjunctival injection up to 4 weeks; week 1 to week 4, difference significant up to 8 weeks
# Procedure: as §1
# (§3) The 29-mer was reconstituted in DMSO to a final concentration 100 μM. A separated dose of 10 μl of 29-mer (100 μM) mixed with 90 μl of phosphate-buffered saline (PBS) was injected into the upper and lower conjunctival fornix. 10 μl of DMSO mixed with 90 μl of PBS served as a control. […]
# To avoid the reduced lipids secretion resulting from no eye blinking under long-term anesthesia, Tear break-up time (TBUT)^19,20 was performed immediately after mice were anesthetized. […] After three compulsory blinks, TBUT was recorded in […] under a slit-lamp with a blue-free barrier filter. […]
# acinar progenitor cells = assay: 5-Bromo-2'-deoxyuridine (BrdU) incorporation assay in upper eyelids after subconjunctival injection; assay type: in vivo, C57BL/6 mice; conditions: for BrdU-positive cells per acinus: 24 hours after subconjunctival injection; for BrdU-positive cells in acinar base (cell proliferation): day 5 after single subconjunctival injection
# Procedure: as §1, §2
# After subconjunctival injection of 29-mer or DMSO, 5-Bromo-2′deoxyuridine (BrdU) 0.1 mg/g of body weight was injected intraperitoneally. The upper eyelids were harvested at 24 hours to evaluate the proliferation of acinar progenitor cells. To study the mitosis of cells, mice were administered by intraperitoneal injections of BrdU daily for 3 days, and the upper eyelids were harvested at day 5. Before performing immunohistochemistry of BrdU, slides were treated with 1 N HCL at 95° C. for 20 minutes.
# Immunohistochemistry (IHC) was performed as previously described and modified.^22 Formalin-fixed, paraffin-embedded, mice specimens were deparaffinized in xylene and rehydrated in a graded series of ethanol concentrations. Slides were blocked with 10% goat serum for 60 minutes and then incubated with primary antibody against BrdU (1:800 dilution), PEDF (1:50), or p63 (1:200) overnight at 4° C. The slides were subsequently incubated with the appropriate peroxidase-labeled goat immunoglobulin (1:500 dilution; Chemicon, Temecula, Calif.) for 20 minutes and then incubated with chromogen substrate (3,3-diaminobenzidine) for 2 minutes before counterstaining with hematoxylin. Quantification was estimated based on high quality images captured using a Pannoramic digital slide scanners (3Dhistech Ltd. Budapest, Hungary).
# [3] = system: myogenic stem cells and C2C12 myoblasts; conditions: cited from earlier work
# [4] = system: acinar progenitor cells (p63-expressing cells); assay: Immunohistochemistry of stem cell marker p63 in upper eyelids 5 days after single treatment; assay type: in vivo, C57BL/6 mice; conditions: aging (old) mice
# Procedure: as §1, §3
# Immunohistochemistry (IHC) was performed as previously described and modified.^22 Formalin-fixed, paraffin-embedded, mice specimens were deparaffinized in xylene and rehydrated in a graded series of ethanol concentrations. […] Quantification was estimated based on high quality images captured using a Pannoramic digital slide scanners (3Dhistech Ltd. Budapest, Hungary).
# Meibomian gland = assay: Eyelid whole mount Oil Red O (ORO) staining, MG size; assay type: in vivo, C57BL/6 mice; conditions: old mice, weekly subconjunctival injection, at one month
# Procedure: as §1, §3
# At one month, upper eyelids were subjected to whole mount Oil Red O (ORO) staining. The size of MG tissue in whole mount was quantified using the color range selection and histogram tool with a computer-assisted image analyzer (Adobe Photoshop 7.0) and was calculated in Pixels. […]
# [5] = Measurement of tear volume (phenol red thread tear test); assay type: in vivo, C57BL/6 mice; conditions: old mice, weekly subconjunctival injection up to 4 weeks; weeks 1, 2, 3, 4 and 8
# Procedure: as §1, §3
# The amount of tears was measured with the phenol red thread tear test using ZONE-QUICK cotton threads (Yokota, Tokyo, Japan).^19,20 After general anesthesia, the lower eyelid was pulled down slightly, and a 1 mm portion of the thread was placed on the palpebral conjunctiva at the point ⅓ of the distance from the lateral canthus. […] The red portion of the thread is measured in millimeters.
substance,measurement,setting,value
"44-mer: 44-mer motif of PEDF, amino acid positions Val78-Thr121 (VLLSPLSVATALSALSLGAEQRTESIIHRALYYDLISSPDIHGT; UniProt P36955 78-121, looked up, fragment)",stem cells proliferation and regeneration in the limbus,limbus stem cells,induce stem cells proliferation and regeneration
"SLGAEHRTESVIHR (listed as Mus musculus) [mo-14mer, mouse variant of the 14-mer]",activities of 29-mer variants,[1],active
"SLGAEHRTESVIHRALYYDLITNPDIHST (listed as Mus musculus) [mo-29mer, mouse variant of the 29-mer]",activities of 29-mer variants,[1],active
"SLGAEQRTESIIHRALYYDLISSPDIHGT (listed as Homo sapiens) [29-mer, PEDF-derived short peptide, human PEDF residues 93-121 (Ser93-Thr121)]","ORO staining within the cytoplasm of differentiating meibocytes, cross sections",meibocytes,more overall ORO staining
same,TBUT versus control,[2],significantly longer
same,BrdU-positive cells per acinus,acinar progenitor cells; old mice,1.67±0.58 cells/per acinus
same,BrdU-positive cells in acinar base (cell proliferation),acinar progenitor cells; old mice,4.29±1.19
same,BrdU-positive cells per acinus,acinar progenitor cells; young mice,2.35±0.73 cells/per acinus
same,BrdU-positive cells in acinar base (cell proliferation),acinar progenitor cells; young mice,6.70±1.35
same,proliferation of myogenic stem cells and C2C12 myoblasts,[3],induce proliferation
same,number of p63-expressing cells per acinus,[4],10.98±2.75
same,"MG acinar size, whole mount ORO, upper eyelids",Meibomian gland,2347530±34986.4 pixels/eyelid
same,Tear secretion test versus control,[5],invariant

# Reference: patent publication US20210128685A1, “PEDF-DERIVED PEPTIDES FOR PROMOTING MEIBOMIAN GLAND REGENERATION AND USES THEREOF” (BRIM Biotechnology, Inc., priority 2018, published 2021)
